Laboratory results as given in patent US6653316B1, “Substituted polycyclic aryl and heteroaryl pyrimidinones useful for selective inhibition of the coagulation cascade” (Pharmacia Corporation, priority 1999, dated 2003).

Columns and labels:
Assay type in all cases: biochemical
human thrombin = human thrombin (Homo sapiens, UniProt P00734); experiment: Thrombin Assay (chromogenic substrate hydrolysis, OD 405 nm); details: for IC50: cells without % sign, 60 min at room temperature, read-out: IC50 or % Inhibition Thrombin II (30 μM): IC50; for inhibition at 30 µM / inhibition at 100 µM: read-out: IC50 or % Inhibition Thrombin II (30 μM): % inhibition
Experimental: 0.28 nM human thrombin and 0.06 mM H-D-Phenylalanyl-L-pipecolyl-L-arginine-p-nitroaniline dihydrochloride are added to a 96-well assay plate containing either inhibitor or buffer (50 mM Tris-HCl, pH 8.0. 100 mM NaCl, 0.1% BSA). The reaction, in a final volume of 100 ul is measured immediately at 405 nm to determine background absorbance. The plate is incubated at room temperature for 60 min, at which time the rate of hydrolysis of the substrate is measured by monitoring the reaction at 405 nm for the release of p-nitroaniline. Percent inhibition of thrombin activity is calculated from OD405 nm value from the experimental and control sample.
(§1) Recombinant soluble TF, consisting of amino acids 1-219 of the mature protein sequence was expressed in E. coli and purified using a Mono Q Sepharose FPLC. Recombinant human VIIa was purchased from American Diagnostica, Greenwich Conn. and chromogenic substrate N-Methylsulfonyl-D-phe-gly-arg-p-nitroaniline was prepared by American Peptide Company, Inc., Sunnyvale, Calif. Factor Xa was obtained from Enzyme Research Laboratories, South Bend Ind., thrombin from Calbiochem, La Jolla, Calif., and trypsin and L-BAPNA from Sigma, St. Louis Mo. The chromogenic substrates S-2765 and S-2238 were purchased from Chromogenix, Sweden.

[1] = target: T1, trypsin, type IX from porcine pancreas (Sus scrofa, UniProt P00761); experiment: Trypsin Assay (L-BAPNA hydrolysis, OD 405 nm); details: cells without % sign; 60 min at room temperature; read-out: IC50 or % Inhibition Trpysin II (30 μM): IC50
T1 construct: purchased Sigma, St. Louis Mo. type IX; host or cells: porcine pancreas
Experimental: 5 ug/ml trypsin, type IX from porcine pancreas and 0.375 mM N-α-Benzoyl-L-arginine-p-nitroanilide (L-BAPNA) are added to a 96-well assay plate containing either inhibitor or buffer (50 mM Tris-HCl, pH 8.0, 100 mM NaCl, 0.1% BSA). The reactions, in a final volume of 100 ul are measured immediately at 405 nm to determine background absorbance. The plate is incubated at room temperature for 60 min, at which time the rate of hydrolysis of the substrate is measured by monitoring the reaction at 405 nm for the release of p-nitroaniline. Percent inhibition of trypsin activity is calculated from OD405 nm value from the experimental and control sample.
as §1

[2] = target: T2, recombinant soluble tissue factor and recombinant human factor VIIa (TF-VIIa) (Homo sapiens, UniProt P08709); experiment: TF-VIIa Assay (chromogenic substrate hydrolysis, OD 405 nm); details: cells without % sign; 60 min at room temperature; read-out: IC50 or % Inhibition TF-VIIa (30 μM): IC50
T2 construct: conversion of coagulation factor VII to VIIa by Xa; host or cells: E. coli (soluble TF)
Experimental: In this assay 100 nM recombinant soluble tissue factor and 2 nM recombinant human factor VIIa are added to a 96-well assay plate containing 0.4 mM of the substrate, N-Methylsulfonyl-D-phe-gly-arg-p-nitroaniline and either inhibitor or buffer (5 mM CaCl2,50 mM Tris-HCl, pH 8.0, 100 mM NaCl, 0.1% BSA). The reaction, in a final volume of 100 ul is measured immediately at 405 nm to determine background absorbance. The plate is incubated at room temperature for 60 min, at which time the rate of hydrolysis of the substrate is measured by monitoring the reaction at 405 nm for the release of p-nitroaniline. Percent inhibition of TF-VIIa activity is calculated from OD405 nm value from the experimental and control sample.
as §1

human factor Xa = target: T3, human factor Xa (Homo sapiens, UniProt P00742); experiment: Xa Assay (chromogenic substrate S-2765 hydrolysis, OD 405 nm)
T3 construct: purchased Enzyme Research Laboratories, South Bend Ind
Experimental: 0.3 nM human factor Xa and 0.15 mM N-α-Benzyloxycarbonyl-D-arginyl-L-glycyl-L-arginine-p-nitroaniline-dihydrochloride (S-2765) are added to a 96-well assay plate containing either inhibitor or buffer (50 mM Tris-HCl, pH 8.0, 100 mM NaCl, 0.1% BSA). The reaction. in a final volume of 100 ul is measured immediately at 405 nm to determine background absorbance. The plate is incubated at room temperature for 60 min, at which time the rate of hydrolysis of the substrate is measured by monitoring the reaction at 405 nm for the release of p-nitroaniline. Percent inhibition of Xa activity is calculated from OD405 nm value from the experimental and control sample.
as §1

[3] = read-out: IC50 or % Inhibition Factor Xa (30 μM): % inhibition

T1 sequence (P00761 9-231): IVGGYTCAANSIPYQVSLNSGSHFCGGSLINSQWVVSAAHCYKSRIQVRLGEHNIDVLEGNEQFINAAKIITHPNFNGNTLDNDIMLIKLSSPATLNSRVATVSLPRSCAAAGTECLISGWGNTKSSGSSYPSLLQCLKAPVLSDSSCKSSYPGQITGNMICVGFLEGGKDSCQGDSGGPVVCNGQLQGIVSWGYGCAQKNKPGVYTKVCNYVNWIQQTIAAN
T2 sequence (P08709 213-466 limits assumed): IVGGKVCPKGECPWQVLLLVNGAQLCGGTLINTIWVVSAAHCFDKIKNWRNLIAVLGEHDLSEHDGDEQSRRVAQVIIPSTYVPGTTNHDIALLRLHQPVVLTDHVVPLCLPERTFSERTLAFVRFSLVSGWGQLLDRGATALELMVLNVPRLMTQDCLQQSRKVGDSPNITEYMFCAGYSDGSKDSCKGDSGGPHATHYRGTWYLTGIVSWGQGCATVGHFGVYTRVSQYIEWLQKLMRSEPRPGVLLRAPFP
T2 sequence (P08709 61-212 limits assumed): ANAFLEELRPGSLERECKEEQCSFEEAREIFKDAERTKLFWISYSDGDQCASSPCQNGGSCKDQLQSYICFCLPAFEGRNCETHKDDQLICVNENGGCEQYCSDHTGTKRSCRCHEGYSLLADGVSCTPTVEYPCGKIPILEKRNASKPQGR
T2 sequence (P13726 33-251 partner limits assumed): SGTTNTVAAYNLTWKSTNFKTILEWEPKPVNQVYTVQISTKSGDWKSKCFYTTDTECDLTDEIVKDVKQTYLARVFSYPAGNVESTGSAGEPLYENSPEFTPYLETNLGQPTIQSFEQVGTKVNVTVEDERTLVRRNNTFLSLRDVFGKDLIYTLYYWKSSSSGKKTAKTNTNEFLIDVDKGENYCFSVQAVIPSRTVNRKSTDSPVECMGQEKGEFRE
T3 sequence (P00742 235-488 limits assumed): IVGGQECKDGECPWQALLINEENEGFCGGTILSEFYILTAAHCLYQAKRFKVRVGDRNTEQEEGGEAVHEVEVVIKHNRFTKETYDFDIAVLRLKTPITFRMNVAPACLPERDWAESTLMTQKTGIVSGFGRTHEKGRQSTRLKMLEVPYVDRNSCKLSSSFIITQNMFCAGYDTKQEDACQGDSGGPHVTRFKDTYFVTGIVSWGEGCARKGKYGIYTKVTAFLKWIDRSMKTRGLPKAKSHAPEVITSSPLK
T3 sequence (P00742 41-179 limits assumed): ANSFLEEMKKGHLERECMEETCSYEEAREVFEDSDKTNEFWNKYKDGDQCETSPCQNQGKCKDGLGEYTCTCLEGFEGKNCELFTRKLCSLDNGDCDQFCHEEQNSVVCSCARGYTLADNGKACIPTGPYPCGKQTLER

IC50 (human thrombin) [nM]	IC50 [1] [nM]	IC50 [2] [nM]	inhibition at 30 µM (human factor Xa; [3]) [%]	inhibition at 100 µM (human thrombin) [%]	IC50 (human factor Xa; cells without % sign, 60 min at room temperature, read-out: IC50 or % Inhibition Factor Xa (30 μM): IC50) [nM]	inhibition at 100 µM (human factor Xa; @100 μM, read-out: IC50 or % Inhibition Factor Xa (30 μM): % inhibition) [%]	Structure (SMILES)	inhibition at 30 µM (human thrombin) [%]
22400	500	15400	–	–	–	–	N=C(N)c1ccc(CNC(=O)Cn2c(-c3ccccc3)ncc(NS(=O)(=O)Cc3ccccc3)c2=O)cc1 [Example 1]	–
> 30000	–	–	–	–	–	–	N=C(N)c1cccc(CNC(=O)Cn2c(-c3ccccc3)ncc(NS(=O)(=O)Cc3ccccc3)c2=O)c1 [Example 2]	–
–	600	1000	–	–	–	–	N=C(N)c1ccc(CNC(=O)Cn2c(-c3ccccc3)ncc(NCCc3ccccc3)c2=O)cc1 [Example 3]	–
11300	40	700	33	–	–	–	CC(C)Nc1cnc(-c2cccnc2)n(CC(=O)NCc2ccc(C(=N)N)cc2)c1=O [Example 7]	–
–	40	80	15	–	–	–	N=C(N)c1ccc(CNC(=O)Cn2c(-c3cccc(N)c3)ncc(NC3CCC3)c2=O)cc1 [Example 8]	42
–	30	80	–	41	85000	–	COC(=O)c1cc(N)cc(-c2ncc(NC(C)C)c(=O)n2CC(=O)NCc2ccc(C(=N)N)cc2)c1 [Example 20]	–
–	50	70	–	26	–	15	CC(C)Nc1cnc(-c2cc(N)cc(C(=O)O)c2)n(CC(=O)NCc2ccc(C(=N)N)cc2)c1=O [Example 21]	–

Structure (SMILES)	IC50 (human thrombin) [nM]	IC50 [1] [nM]	IC50 [2] [nM]	inhibition at 30 µM (human factor Xa; [3]) [%]	inhibition at 100 µM (human thrombin) [%]	IC50 (human factor Xa; cells without % sign, 60 min at room temperature, read-out: IC50 or % Inhibition Factor Xa (30 μM): IC50) [nM]	inhibition at 100 µM (human factor Xa; @100 μM, read-out: IC50 or % Inhibition Factor Xa (30 μM): % inhibition) [%]	inhibition at 30 µM (human thrombin) [%]
CC(C)Nc1cnc(-c2cccc(N)c2)n(CC(=O)NCc2ccc(C(=N)N)cc2)c1=O [Example 6]	–	< 40	50	33	–	–	–	43
